Legend:
Format in all cases: cell-based
3T3-L1 cells = assay: Oil Red O staining of lipid droplet accumulation / adipocyte differentiation of 3T3-L1 cells; details: for lipid droplets (Oil Red-O staining): 3T3-L1 cells committed to adipocyte differentiation
Protocol: (§1) 3T3-L1 cells committed to adipocyte differentiation were treated with either Darglitazone, the LXRα agonist 22-R-hydroxy cholesterol, or both. 22-R-hydroxy cholesterol (22-R) is a naturally occurring agonist for LXRα (Janowski et al. 1996). […] Therefore, treatment of 3T3-L1 pre-adipocytes with either a PPARγ agonist or an LXRα agonist leads to fat accumulation and increased expression of LXRα.
(§2) The 3T3-L1 cell line (ATCC) was maintained in DMEM supplemented with 10% fetal calf serum, 2 mM L-glutamine and penicillin/streptomycin at 37° C. Cells were grown to confluence and exposed to adipogenic reagents for 3 days, followed by culturing for 3 more days in medium containing insulin only as described elsewhere (Lin and Lane, 1992). Insulin was used at a concentration of 1 μg/ml, dexamethasone at 1 μM and isobutylmethylxanthine at 0.5 mM.
Light microscopy and Oil Red O staining were used to monitor the characteristic cell rounding and lipid droplet accumulation in these cells during differentiation. Images were taken using a microscope (Leica DMIL) and a dual-colour charge coupled device camera (Leica MPS 60).

[1] = system: LXRα mRNA in human adipocytes; assay: Northern blot analysis of LXRα mRNA in human adipocytes; details: 1 μM Darglitazone, 5 μM 22-(R)-hydroxy cholesterol or both, 48 hrs, FIG. 3
Protocol: Human adipocytes were obtained from breast reduction surgery. Pieces of adipose tissue (5-600 mg) were prepared under sterile conditions and used for incubations in plastic tubes essentially as described (Ottosson et al., 1994). PolyA+ RNA was isolated and subjected to Northern blot analysis (FIG. 3).
(§3) Total RNA from differentiated 3T3-L1 adipocytes or adipose tissue were extracted by the Trizol (Life Technologies, Inc.) method as recommended by the manufacturer. Northern blot analysis of RNA was performed as described earlier (Sorensen et al., 1994). 20 μg of total RNA was analyzed for LXRα and ribosomal protein 18S mRNA.

[2] = system: LXRα mRNA in 3T3-L1 adipocytes; assay: Northern blot analysis of LXRα mRNA in 3T3-L1 adipocytes; details: for LXRα mRNA (Northern blot of total RNA): differentiating 3T3-L1 cells, 22-R 5 μM, Darglitazone 1 μM, alone or in combination, 24 hours, FIG. 2
Protocol: We performed Northern blot analysis on total RNA from 3T3-L1 adipocytes treated with increasing doses of a PPARγ agonist. Adipocytes treated over a 24 hrs period with […] of Darglitazone. 20 μg total RNA was subjected to Northern blotting and probed with a ^32P-labeled LXRα cDNA probe. The signal was obtained by scanning the autoradiogram and normalised for 18S RNA expression. […] These concentrations are in agreement with concentrations required for activation of PPARγ in reporter assays (Lehmann et al. 1995).
as §1, §2, §3

SMILES: Cc1oc(-c2ccccc2)nc1CCC(=O)c1ccc(CC2SC(=O)NC2=O)cc1 (centres unmarked) [Darglitazone]
- lipid droplets (Oil Red-O staining) (3T3-L1 cells): gradually larger lipid droplets
- expression levels of LXRα mRNA (Northern blot of PolyA+ RNA) [1]: increased expression levels
- induction of LXRa mRNA ([2]; 3T3-L1 adipocytes, 24 hrs, 0.01, 0.1, and 1 mM, normalised for 18S RNA, FIG. 1): approximately 5 fold
- LXRα mRNA (Northern blot of total RNA) [2]: increase

SMILES: CC(C)CC[C@@H](O)[C@@H](C)[C@H]1CC[C@H]2[C@@H]3CC=C4C[C@@H](O)CC[C@]4(C)[C@H]3CC[C@]12C [22-R-hydroxy cholesterol]
- lipid droplets (Oil Red-O staining) (3T3-L1 cells): gradually larger lipid droplets
- adipocyte differentiation of 3T3-L1 pre-adipocytes (3T3-L1 cells; 3T3-L1 pre-adipocytes): enhances adipocyte differentiation
- expression levels of LXRα mRNA (Northern blot of PolyA+ RNA) [1]: increased expression levels
- LXRα mRNA (Northern blot of total RNA) [2]: increase

From patent publication US20080032961A1, “Therapy employing LXRalpha modolators” (priority 2001, published 2008)
